Results reported in patent US9539321B2, “HMGB1-derived peptides enhance immune response to antigens” (The Regents of the University of California, priority 2010, dated 2017).
Entries after “also recorded” stand apart in the source; their conditions may differ. Like-named read-outs stand apart in the source and are kept apart here. Where a SMILES comes first, the peptide text is derived from it. The star is where a group is joined. Biotin = O=C1N[C@H]2[C@H](CS[C@H]2CCCCC(=O)*)N1

Columns and labels:
[1] = tested on: p-IRF3 in RAW 264.7 macrophages; test: Immunoblotting for phospho-IRF3; format: cell-based, mouse; conditions: Dynasore 80 μM pre-treatment
J774 macrophages [2] = format: cell-based, mouse
J774 macrophages [3] = test: Uptake of Cp488-labeled Hp91 by macrophages, flow cytometry; format: cell-based, mouse; conditions: Dynasore 80 μM, Cp488-labeled Hp91 200 μg ml^−1
[4] = Adverse effects of tested doses in mice; format: in vivo
Immature human DCs [5] = test: Peptide binding/uptake by flow cytometry; conditions: for uptake by DCs: biotinylated peptide 200 μg ml^−1, 30 minutes, 37° C.
Immature human DCs [6] = test: Stimulation of DCs, IL-6 by ELISA; format: cell-based; conditions: for effect of inhibitor pre-treatment on Hp91-induced IL-6 secretion: SB203580 5 or 20 μM, PD98059 20 μM, TPCK 20 μM, 48 h
[7] = tested on: antigen-specific IFN-γ secreting T cells; test: IFN-γ ELISPOT of splenocytes from immunized mice; format: in vivo, C57BL/6 mice; conditions: for number of antigen-specific IFNγ-secreting T cells compared to PBS: equimolar peptide with SIINFEKL peptide
Description: Female C57BL/6 mice 8-12 weeks of age were used for most experiments. All mice were purchased from Charles River Laboratories (Boston, Mass., USA) and housed at the Moores UCSD Cancer Center animal facility. All animal studies were approved by the Institutional Animal Care and Use Committee of UCSD and were perfolined in accordance with the institutional guidelines. For most experiments, mice were immunized s.c. with 50 μg of SIINFEKL (OVA-I) peptide (SEQ ID NO: 45) and 50 μg of ISQAVHAAHAEINEAGR (OVA-II) peptide (SEQ ID NO: 46). The OVA peptide was co-administered with either Hp91 (30 to 500 μg) or PBS (negative control). For some experiments, a protein vaccine group was included, wherein 500 μg of Hp91 was co-administered with 100 μg of LPS-free OVA protein. As a positive control, mice were immunized s.c. with OVA peptide(s) or protein in Incomplete Freund's Adjuvant “IFA” (Sigma-Aldrich, St. Louis, Mo., USA). If not otherwise indicated, mice were immunized and boosted two weeks later and spleens and blood were collected 10-14 days after the final immunization.
Single cell suspensions of splenocytes were prepared by mechanical disruption and separation through a 70 μm nylon cell strainer (BD Biosciences, Franklin Lakes, N.J., USA). Red blood cells were lysed using ammonium chloride buffer (Roche Diagnostics, Indianapolis, Ind., USA) and the splenocytes were subsequently resuspended in complete medium (RPMI 1640 with 10% FBS, L-glutamine, penicillin, streptomycin, and HEPES). in some experiments, CD4+ and CD8+ cells were depleted from bulk splenocyte populations using anti-CD4 or anti-CD8α conjugated microbeads (Miltenyi-Biotec, Auburn, Calif., USA) according to the manufacturer's instructions.
Freshly isolated splenocytes were plated in duplicate to wells of a nitrocellulose bottom enzyme-linked immunospot (ELISPOT) plate (Millipore, Millerica, Mass., USA) that had been previously coated overnight with 5 μg ml^−1 monoclonal anti-mouse IFN-γ antibody (Mabtech, Stockholm, Sweden). Splenocytes were cultured overnight at 37° C. with 2.5 μg ml^−1 SIINFEKL (OVA-I) peptide, 2.5 μg ml^−1 ISQAVHAAHAEINEAGR (OVA-II) peptide, or left unstimulated (medium only). After 18 h, culture supernatants were collected for cytokine analysis and ELISPOT plates were developed using 1 μg ml^−1 biotinylated anti-mouse IFN-γ antibody (Mabtech), Streptavidin-HRP (Mabtech), and TMB Substrate (Mabtech). The plate was scanned and the spots were counted using an automated ELISpot Reader System (CTL ImmunoSpot, Shaker Heights, Ohio, USA).
Mice were immunized s.c. with 50 μg of SIINFEKL peptide. The SIINFEKL peptide was co-administered with either PBS, Hp91 (250 μg), or scrambled Hp91 (250 μg). Peptides were dissolved in PBS for all immunizations, Mice were boosted two weeks later and spleens and blood were collected one week after the final immunization. Single cell suspensions of splenocytes were prepared by mechanical disruption and separation through a […] nylon cell strainer (BD Biosciences). Red blood cells were lysed using ammonium chloride buffer (Roche Diagnostics, Indianapolis, Ind.) and the splenocytes were subsequently resuspended in RPMI 1640 medium (Invitrogen) supplemented with 10 mmol HEPES (GIBCO-BRL), penicillin (100 U/mL)—streptomycin (100 μg/mL)—glutamine (2 mM) (GIBCO-BRI.), arid 5% (vol/vol) fetal calf serum (Omega).
Freshly isolated splenocytes were plated in duplicate to wells of a nifrocellulose bottom enzymelinked immunospot (ELISPOT) plate (Millipore, NAillerica, Mass., USA) that had been previously coated overnight with 5 μg ml^−1 monoclonal anti-mouse IFN-γ antibody (Mabtech, Stockholm, Sweden). Splenocytes were cultured overnight at 37° C., with 2.5 μg ml^−1 SIINFEKL peptide, 5 μg ml^−1 concanavalin A positive control (Sigma), or left unstimulated (medium only). […]

Circular dichroism = format: physicochemical; conditions: 75%/25% TFE/H2O, 200 μg ml^−1
Description: CD spectra of peptides, dissolved in 75%/25% Trifluoroethanol (TFE, Sigma)/H2O (vol/vol), were collected on an AVIV model 202 Circular Dichroism Spectrometer, under nitrogen, using a 1 mm pathlength quartz cuvette. These spectra were corrected by subtraction of a “solvent-only” spectrum and smoothed. The spectra are shown in mean residue ellipticity (θmrw). Peptides were analyzed at 200 μg ml^−1.

splenocytes = test: IL-2 / IL-4 secretion of splenocytes from immunized mice by ELISA; format: in vivo, C57BL/6 mice
Description: Splenocytes were cultured overnight with 2.5 μg ml^−1 OVA-I peptide, 2.5 μg ml^−1 OVA-II peptide, 5 μg ml^−1 concanavalin A positive control (Sigma), or left unstimulated (media only). After 18 h, cell culture supernatants were collected and analyzed for the presence of IL-2 and IL-4 by ELISA (eBioscience).
(§1) To measure cytokine release from immunized mice, splenocytes were cultured overnight with 2.5 μg ml^−1 SINFEKI: peptide, 5 μg ml^−1 concanavalin A positive control (Sigma), or left unstimulated (medium only). After 18 h, cell culture supernatants were collected and analyzed for the presence of IL-2 by ELISA. (eBioscience).
as §1, with “SIINFEKL” for “SINFEKI:”, “(media” for “(medium”, “ELISA” for “ELISA.”

B16 melanoma cells = test: Prophylactic B16 tumor challenge
Immature human DCs [8] = test: Confocal microscopy of peptide binding/uptake; format: cell-based; conditions: even after 30 minutes at 37° C.
Description: Immature human DCs (10^5) were pre-cooled on ice and subsequently incubated for 30 minutes on ice in culture medium with biotinylated Hp91 or Hp121 to allow peptide binding. Cells were washed and then incubated for the indicated time at 37° C. Cells were cytospun (Shandon Cytospin 2 centrintge) onto glass slides, fixed, pernieabiiized with acetone, and stained with Streptavidin-Alexa 488 (Invitrogen) to visualize biotinylated peptides and Hoechst 33258 DNA stain (Invitrogen). Cells were imaged on a Zeiss LSM confocal microscope.

mouse BM-DCs = test: Stimulation of mouse BM-DCs, IL-6 by ELISA; format: cell-based
Immature human DCs [9] = conditions: cited from earlier work
[10] = biotinylated, 90 μM, 30 minutes 37° C.

## O=C(N/N=C/c1ccc(O)c(O)c1)c1cc2ccccc2cc1O [Dynasore]
[1]
  effect on Hp91-induced phosphorylation of IRF3: reduced the phosphorylation of IRF3
J774 macrophages [2]
  effect of inhibitor pre-treatment on Hp91-induced IL-6 secretion: significantly reduced
J774 macrophages [3]
  effect on uptake of Hp91: significantly inhibited uptake

## CC(C)C[C@H](NC(=O)[C@H](Cc1ccccc1)NC(=O)[C@H](Cc1ccccc1)NC(=O)[C@H](C)NC(=O)[C@H](CO)NC(=O)[C@@H]1CCCN1C(=O)[C@@H]1CCCN1C(=O)[C@H](CCCNC(=N)N)NC(=O)[C@H](CCCCN)NC(=O)[C@@H]1CCCN1C(=O)[C@H](C)NC(=O)[C@H](CC(N)=O)NC(=O)[C@@H]1CCCN1C(=O)[C@H](CC(=O)O)NC(=O)CCCC[C@@H]1SC[C@@H]2NC(=O)N[C@@H]21)C(=O)N[C@@H](Cc1ccccc1)C(=O)N[C@@H](CS)C(=O)N[C@@H](CO)C(=O)N[C@@H](CCC(=O)O)C(=O)O [Hp91, DPNAPKRPPSAFFLFCSE] (Biotin-DPNAPKRPPSAFFLFCSE-OH)
[4]
  adverse effects: no adverse effects

## C/C1=C/C(=O)O[C@@H]2C[C@@H](CC[C@H](C)/C=C\CC1)O[C@@](O)([C@@H]1CSC(=O)N1)C2 [Latrunculin B]
Immature human DCs [5]
  effect of inhibitor pre-treatment on uptake of biotinylated Hp91: did not significantly reduce
  uptake of Dextran FITC: completely abrogating

## COc1cccc(-c2cc(=O)c3ccccc3o2)c1N [PD98059]
Immature human DCs [6]
  effect of inhibitor pre-treatment on Hp91-induced IL-6 secretion: failed to significantly reduce

## C[S+]([O-])c1ccc(-c2nc(-c3ccncc3)c(-c3ccc(F)cc3)[nH]2)cc1 (stereo not drawn) [SB203580]
Immature human DCs [6]
  effect of inhibitor pre-treatment on Hp91-induced IL-6 secretion: significantly reduced
J774 macrophages [2]
  effect of inhibitor pre-treatment on Hp91-induced IL-6 secretion: significantly lowered

## [N-]=[N+]=[N-] [Sodium azide, sodium azide]
Immature human DCs [5]; Homo sapiens, read-out: inhibition of Hp91 uptake
  inhibition at 10000 µM: ~40%

## N=C(N)NC(=O)c1nc(Cl)c(N)nc1N [amiloride]
Immature human DCs [5]; 30 minutes pre-treatment, PAO 2 μM, CP 100 μM, NY 20 μM, AM 2 mM
  effect of inhibitor pre-treatment on uptake of biotinylated Hp91: failed to significantly reduce

## CN(C)CCCN1c2ccccc2Sc2ccc(Cl)cc21 [chlorpromazine]
J774 macrophages [2]
  effect of inhibitor pre-treatment on Hp91-induced IL-6 secretion: no reduction
Immature human DCs [5]
  effect of inhibitor pre-treatment on uptake of biotinylated Hp91: significantly reduced

## C[C@@H]1[C@H](O)[C@@H](C)/C=C/C=C/CC/C=C/C=C/C=C/C=C/C(O[C@H]2O[C@H](C)[C@@H](O)[C@H](N)[C@@H]2O)CC2O[C@](O)(CC(O)C(O)CCC(O)CC(O)CC(O)CC(=O)O[C@H]1C)CC(O)C2C(=O)O (stereo partly drawn) [nystatin]
Immature human DCs [5]
  effect of inhibitor pre-treatment on uptake of biotinylated Hp91: failed to significantly reduce

## APKRPPSA (UC411 peptide)
Immature human DCs [5]; [10]
  endocytosis by DCs: failed to be endocytosed

## ASLAPPFPNCFDPKSREF (scrambled Hp91 peptide)
[7]; 250 μg with SIINFEKL peptide, compared to Hp91
  antigen-specific immune response (IFN-γ ELISPOT, IL-2): failed to mount an antigen-specific immune response
Immature human DCs [5]
  uptake by DCs: much lesser extent than Hp91; also recorded: not taken up

## DPNAPKRP (UC18 peptide)
Circular dichroism
  secondary structure from CD spectrum: polyproline II helix
Immature human DCs [5]; [10]
  endocytosis by DCs: failed to be endocytosed

## N-tosyl-L-phenylalanine chloromethyl ketone [TPCK]
Immature human DCs [6]
  effect of inhibitor pre-treatment on Hp91-induced IL-6 secretion: significantly reduced
J774 macrophages [2]
  effect of inhibitor pre-treatment on Hp91-induced IL-6 secretion: significantly lowered

## RPPSAFFL (UC714 peptide)
[7]; equimolar doses
  IFNγ-secreting T cells relative to full-length Hp91 peptide: 50%
[7]
  number of antigen-specific IFNγ-secreting T cells compared to PBS: moderate increases
Immature human DCs [5]; [10]
  endocytosis by DCs: failed to be endocytosed

## RPPSAFFLFCSE (UC718 peptide)
Immature human DCs [6]; short peptides, 48 hours
  IL-6 / cytokine secretion from DCs: induces cytokine release from DCs

## SAFFLFCSE [UC1018]
[7]; discussion statement
  adjuvant strength in vivo relative to Hp91, by IFN-γ ELISPOT and IL-2 cytokine release: 3 fold
[7]; equimolar doses
  IFNγ ELISPOT immune response relative to Hp91 positive control: 4 fold
[7]
  number of antigen-specific IFNγ-secreting T cells compared to PBS: significant increase
splenocytes; equimolar doses
  IL-2 level relative to Hp91 controls: 4 fold
splenocytes; immunized with SIINFEKL peptide and peptide adjuvant
  IL-2: significantly enhanced
Circular dichroism
  secondary structure from CD spectrum: alpha helix
B16 melanoma cells; 142 μg with apoptotic B16 cells, significant as early as 11 days post challenge
  tumor formation and tumor growth vs PBS group: delay in tumor formation and slowing of tumor growth
B16 melanoma cells; at 75 days post tumor challenge
  mice tumor-free and alive: 60%
Immature human DCs [5]; [10]
  uptake by DCs compared to Hp91 controls: over 3 fold

## SIGDVAKKLGEMWNNTAA (Hp121 peptide)
[7]; s.c. with OVA-I peptide, 250 μg peptide, freshly isolated and expanded splenocytes, vs PBS/OVA-I
  number of INF-γ secreting cells: No significant increase
Immature human DCs [8]
  detection within DCs: not detected
Mouse BM-DCs
  activation of mouse BM-DCs in vitro: does not cause activation
Immature human DCs [9]
  activation of human DCs in vitro: does not cause activation
Immature human DCs [5]
  uptake by DCs: not taken up
